How the values were obtained:
MHC-II DRB1*03:01 [1] = target: T1, MHC-II DRB1*03:01 (Homo sapiens, UniProt P01903+P01911, A100K/A102G/A103R/A169T/F55Y/I96L/K41T/L162R/M171V/P40S/Q125H/Q178H/Q39Y/R42S/S66N/T106N/T262R/W38E/Y61H); test: Cell-free REVEAL class II binding assay; settings: signal of test peptide as percentage of allele-specific positive control peptide, fluorescence, conformation-specific monoclonal antibody
Procedure, shortened: (§1)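 A monoclonal antibody specific for the native peptide-loaded MHC-II conformation generated the fluorescence signal. Binding was quantified relative to a known T-cell epitope for each allele, reported as percent of its signal, with an intermediate-affinity binder included per run.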

MHC-II DRB1*04:01 [2] = target: T2, MHC-II DRB1*04:01 (Homo sapiens, UniProt P01903+P01911, A100K/A169T/F76Y/I96L/K127E/L162R/M171V/N62H/P40V/Q125Y/R42H/S133A/S149N/S66Y/V115G/V209L/W38E); test: Cell-free REVEAL class II binding assay; settings: signal of test peptide as percentage of allele-specific positive control peptide, fluorescence, conformation-specific monoclonal antibody
Procedure, shortened: as §1

MHC-II DRB1*07:01 [3] = target: T3, MHC-II DRB1*07:01 (Homo sapiens, UniProt P01903+P01911, A100R/A102G/A103Q/D57E/D86V/E43K/F76Y/K127E/L162R/M171V/P40G/Q125H/Q99D/R33Q/R42Y/R54Q/S133A/S66F/T210M/V115G/Y107V/Y59L/Y89S); test: Cell-free REVEAL class II binding assay; settings: signal of test peptide as percentage of allele-specific positive control peptide, fluorescence, conformation-specific monoclonal antibody
Procedure, shortened: as §1

MHC-II DRB1*11:01 [4] = target: T4, MHC-II DRB1*11:01 (Homo sapiens, UniProt P01903+P01911, A100R/A169T/A87E/I96F/K41T/L162R/M171V/P40S/Q125H/Q178H/Q39Y/Q99D/R42S/S66Y/T262R/V115G/W38E); test: Cell-free REVEAL class II binding assay; settings: signal of test peptide as percentage of allele-specific positive control peptide, fluorescence, conformation-specific monoclonal antibody
Procedure, shortened: as §1

MHC-II DRB1*15:01 [5] = target: T5, MHC-II DRB1*15:01 (Homo sapiens, UniProt P01903+P01911); test: Cell-free REVEAL class II binding assay; settings: signal of test peptide as percentage of allele-specific positive control peptide, fluorescence, conformation-specific monoclonal antibody
T5 construct: purchased ProImmune
Procedure, shortened: as §1

MHC-II DRB1*15:03 [6] = target: T6, MHC-II DRB1*15:03 (Homo sapiens, UniProt P01903+P01911, Y59H); test: Cell-free REVEAL class II binding assay; settings: signal of test peptide as percentage of allele-specific positive control peptide, fluorescence, conformation-specific monoclonal antibody
T6 construct: purchased ProImmune
Procedure, shortened: as §1

MHC-II DRB1*03:01 [7] = target: T1, MHC-II DRB1*03:01; test: Cell-free REVEAL class II stability assay; settings: half-life of peptide-MHC-II complex (h, capped at 120) x Binding Score / 100, conformational ELISA
Procedure, shortened: (§2)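 Readout is a conformational ELISA with anti-HLA antibody, scoring assembly or percent denaturation of peptide–MHC-II complexes sampled at timed points. Association ran 96 hr at 10°C. The reported stability score is half-life multiplied by Binding Score, divided by 100.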

MHC-II DRB1*04:01 [8] = target: T2, MHC-II DRB1*04:01; test: Cell-free REVEAL class II stability assay; settings: half-life of peptide-MHC-II complex (h, capped at 120) x Binding Score / 100, conformational ELISA
Procedure, shortened: as §2

MHC-II DRB1*07:01 [9] = target: T3, MHC-II DRB1*07:01; test: Cell-free REVEAL class II stability assay; settings: half-life of peptide-MHC-II complex (h, capped at 120) x Binding Score / 100, conformational ELISA
Procedure, shortened: as §2

MHC-II DRB1*11:01 [10] = target: T4, MHC-II DRB1*11:01; test: Cell-free REVEAL class II stability assay; settings: half-life of peptide-MHC-II complex (h, capped at 120) x Binding Score / 100, conformational ELISA
Procedure, shortened: as §2

MHC-II DRB1*15:01 [11] = target: T5, MHC-II DRB1*15:01; test: Cell-free REVEAL class II stability assay; settings: half-life of peptide-MHC-II complex (h, capped at 120) x Binding Score / 100, conformational ELISA
Procedure, shortened: as §2

MHC-II DRB1*15:03 [12] = target: T6, MHC-II DRB1*15:03; test: Cell-free REVEAL class II stability assay; settings: half-life of peptide-MHC-II complex (h, capped at 120) x Binding Score / 100, conformational ELISA
Procedure, shortened: as §2

T6 sequence (P01903 26-254, other chains not shown): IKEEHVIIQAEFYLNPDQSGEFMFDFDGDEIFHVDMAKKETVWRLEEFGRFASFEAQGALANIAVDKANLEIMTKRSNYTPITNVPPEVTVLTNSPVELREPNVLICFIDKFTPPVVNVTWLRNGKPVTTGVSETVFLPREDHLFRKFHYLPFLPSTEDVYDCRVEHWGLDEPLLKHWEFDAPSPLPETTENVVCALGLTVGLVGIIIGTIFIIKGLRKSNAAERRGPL
T1 sequence (P01903 26-254 limits assumed, other chains not shown): as the sequence (P01903 26-254, other chains not shown) above
T4 sequence (P01903 26-254 limits assumed, other chains not shown): as the sequence (P01903 26-254, other chains not shown) above

Sequence	Binding Score (MHC-II DRB1*03:01 [1])	Binding Score (MHC-II DRB1*04:01 [2])	Binding Score (MHC-II DRB1*07:01 [3])	Binding Score (MHC-II DRB1*11:01 [4])	Binding Score (MHC-II DRB1*15:01 [5])	Binding Score (MHC-II DRB1*15:03 [6])	Stability Index (MHC-II DRB1*03:01 [7])	Stability Index (MHC-II DRB1*04:01 [8])	Stability Index (MHC-II DRB1*07:01 [9])	Stability Index (MHC-II DRB1*11:01 [10])	Stability Index (MHC-II DRB1*15:01 [11])	Stability Index (MHC-II DRB1*15:03 [12])
VVNSLDPPLLTRYLR [synthetic wild type FVIII 15 mer peptide]	2.7%	1.2%	0.0%	0.2%	95.8%	2.2%	0.4	0.1	0.0	0.0	7.8	0.1
YIRLHPTHYSIRSTL [synthetic wild type FVIII 15 mer peptide]	7.9%	59.3%	17.2%	174.3%	1195.7%	234.7%	2.4	61.0	20.6	30.2	1434.9	281.7
YISQFIIMYSLDGKK [synthetic wild type FVIII 15 mer peptide]	1.8%	44.5%	0.0%	114.1%	602.6%	1.4%	0.2	30.9	0.0	33.1	723.1	1.7
YNIYPHGITDVRPLY [synthetic wild type FVIII 15 mer peptide, region of ns-SNP R484H]	0.2%	2.1%	0.1%	35.8%	40.8%	0.1%	0.0	0.2	0.1	1.1	2.0	0.1
YPHGITDVRPLYSRR [synthetic wild type FVIII 15 mer peptide, region of ns-SNP R484H]	4.8%	0.1%	0.1%	46.7%	0.4%	0.1%	5.2	0.0	0.1	1.2	0.5	0.1
YSLDGKKWQTYRGNS [synthetic wild type FVIII 15 mer peptide]	0.0%	0.9%	0.0%	23.5%	11.8%	0.2%	0.0	0.1	0.0	1.1	3.0	0.0
YTFKHKMVYEDTLTL [synthetic wild type FVIII 15 mer peptide]	0.8%	5.0%	0.0%	31.6%	0.9%	0.0%	0.0	0.5	0.0	13.7	1.1	0.1

From article PMC3656107, “Polymorphisms in the F8 Gene and MHC-II Variants as Risk Factors for the Development of Inhibitory Anti-Factor VIII Antibodies during the Treatment of Hemophilia A: A Computational Assessment” (PLoS Computational Biology, 2013)
